# Measured values reported in US20060257463A1, “Transmucosal delivery of cannabinoids” (UNIVERSITY OF MISSISSIPPI, priority 2002, published 2006).
# Where two headings read alike, the source gives them in different places.
# Columns and labels:
# [1] = Diffusion study of transmucosal films in modified Franz cells; conditions: rabbit mucosa; Brij 3.0% buffer pH 7.2; FIG. 1
# Protocol: Diffusion studies of the transmucosal preparation films in Examples #5 and #6 were performed using a PermeGear, Model V9, 9 Cell System. Modified Franz cells were employed using thinly-excised rabbit mucosa as the diffusion membrane. Diffusion media was a diffusion buffer system of Brij® 3.0% (pH=7.2) which was determined by previous testing.
# [2] = Solubility in polyethylene glycol 400; conditions: PEG 400
# [3] = Drug recovery after hot-melt processing into transmucosal preparations; assay type: physicochemical; conditions: after processing the drug into TMP systems
# Protocol: The formulas are listed below. The PEO, PVP and Vitamin E TPGS were dry blended in a V-blender. The THC and the THC-HS were solubilized in the PEG 400 and immediately sprayed into the dry blend with continuous mixing. The resulting blend was then hot-melt extruded into films. The highest extrusion temperature was 150° C. and residence time in the barrel was approximately 2 minutes. The resulting transmucosal preparations were approximately 1.0 mm in thickness and both contained over 98% of the original theoretical percent of drug within the formulation.
# It has been reported that THC is very unstable at room temperature and its primary degradant is cannabinol (CBN). It has also been reported that THC instability is accelerated by ultraviolet light and heat.
# [4] = Klucel matrix film, cited from earlier work
molecule,measurement,setting,value
Tetrahydrocannabinol Hemisuccinate [THC-HS],duration of controlled diffusion,[1],over 22 hours
same,release behaviour,[1],more immediate release
"CCCCCc1cc(O)c2c(c1)OC(C)(C)[C@@H]1CCC(C)=C[C@@H]21 [THC, Tetrahydrocannabinol]",solubility in polyethylene glycol 400,[2],> 20%
same,THC recovered after processing into THC transmucosal matrix patch systems,[3],over 98%
same,THC degradation within the hot-mold matrix,[4]; processed at 120° C. for 20 minutes,1.8%
same,THC degradation within the hot-mold matrix,[4]; processed at 160° C. for 20 minutes,2.3%
same,THC degradation within the hot-mold matrix,[4]; processed at 200° C. for 20 minutes,4.3%
